Results taken from US20060088596A1, “Solubilizing a drug for use in a coating” (ATRIUM MEDICAL CORPORATION, priority 2004, published 2006).

Legend:
[1] = Maximum solubility / drug loading of therapeutic agent in vitamin E / bio-absorbable carrier base coating (crystal inspection after solvent removal); assay type: physicochemical; settings: for maximum solubility: NMP
Source text: The amount of solvent that can be included in compositions of the present invention is not particularly limited. In accordance with one embodiment of the present invention, the amount of the therapeutic agent to be dissolved can be an amount up to the maximum amount that can be dissolved in the solvent, vitamin E compound and the bio-absorbable carrier component. The maximum amount of the therapeutic agent that can be dissolved is readily determined by simple mixing, as the presence of any non-dissolved therapeutic agent is apparent after solvent removal on visual inspection. In various embodiments, the amount of the therapeutic agent will be less than the maximum that can be dissolved. Upon administration to a subject of the therapeutic agent dissolved in the bio-absorbable carrier and the solvent, the amount of the given solvent can be limited to a pharmaceutically acceptable amount, which can be readily determined by one of skill in the art. In various aspects, it can be appropriate to include amounts of solvents in excess of pharmaceutically acceptable amounts, with excess solvent removed prior to providing the administration of the composition using conventional techniques such as evaporation.
Referring again to FIG. 1, the ratio of a vitamin E compound and the bio-absorbable carrier component is then determined (step 130). […] The bio-absorbable carrier component can include fish oil, fish oil mono, di and triglycerides, free fatty acids, fatty acid esters, partially oxidized oil, or hydrolyzed oil and any derivatives. After the formulations are made the solvent is removed from the sample under vacuum and the drug formulation is inspected under a microscope for crystal formation. The level of soluble drug can be influenced by such factors as vitamin E level, fish oil level, fatty acid ester content, free fatty acid content, mono, di or triglyceride content, presence of oxidation, or by hydrolysis byproducts of the oil. The amount of soluble drug can also be effected by the solvent and/or solvent loading that is used to load the drug into the formulation.
Referring again to FIG. 1, the bio-absorbable carrier component and the vitamin E compound or a combination thereof are provided (step 130). In accordance with one aspect of the present invention, the bio-absorbable carrier component and the vitamin E compound can be mixed together, for example, by vortexing, sonicating, stirring, rolling, or shaking, to form a second mixture (step 140). Accordingly, the second mixture can be mixed first, the first mixture can be mixed first, or the first mixture and the second mixture can be mixed substantially simultaneously. The first mixture and the second mixture can then be mixed (step 150) such that the therapeutic agent is dissolved, or, if the therapeutic agent was previously dissolved in the solvent, the therapeutic agent remains dissolved. After mixing the first mixture and the second mixture, the solvent is removed by techniques well known in the art, for example, by vacuum, washing, heating, evaporation and the like (step 160). Upon removal of the solvent, the resulting solution can be inspected for presence of crystal formation by techniques well known in the art (step 170). Suitable techniques for inspection for the presense of crystal formation include, for example, visual inspection, microscopic inspections, as well as chemical analysis techniques such as scanning electron microscopy (SEM), environmental scanning electron microscopy (ESEM), differential scanning calorimetry (DSC) and atomic force microscopy (AFM).
A bio-absorbable carrier component in combination with a vitamin E compound was made by mixing 1.5 grams of vitamin E and 3.5 grams of fish oil to form a base coating (30% vitamin E). A sample was then prepared by first dissolving 28 mg of rapamycin in 529 mg of NMP (N-methyl-2-pyrrolidone).

Porcine Coronary Model = settings: stent coated with agent solubilized in eicosapentaenoic acid oil vs eicosapentaenoic acid oil coated stents; cited from earlier work

Q: With CC(=O)O[C@H]1C(=O)[C@@]2(C)[C@H]([C@H](OC(=O)c3ccccc3)[C@]3(O)C[C@H](OC(=O)[C@H](O)[C@@H](NC(=O)c4ccccc4)c4ccccc4)C(C)=C1C3(C)C)[C@]1(OC(C)=O)CO[C@@H]1C[C@@H]2O [paclitaxel] as the compound, how does the “maximum level of drug loading attainable before crystals began to form after drying” value (shortened to “maximum level”) ([1]; 70% vitamin E/30% fish oil base coat, drug loaded from ethanol) read?
A: The value was 4.9%.

Q: And the “dissolution state of drug in coating after drying” value (shortened to “dissolution state of drug”) ([1]; 70% vitamin E/30% fish oil, 4.9% by weight loading using N-methyl-2-pyrrolidone)?
A: The value was “not totally dissolved”.

Q: And the “dissolution state of drug” value ([1]; 70% vitamin E/30% fish oil, 5% by weight loading using ethanol)?
A: The value was “completely dissolved”.

Q: For COc1ccc2[nH]cc(CCNC(C)=O)c2c1 [melatonin], which maximum solubility ([1]; 70% vitamin E and 30% fish oil fatty acid formulation) is on record?
A: The maximum solubility was “greater than 28%”.

Q: What about the maximum solubility ([1]; 70% vitamin E and 30% fish oil formulation) of the same compound?
A: The maximum solubility was 11.5%.

Q: And the “dissolution state of drug” value ([1]; 70% vitamin E and 30% fish oil, 9% by weight loading using N-methyl-2-pyrrolidone)?
A: The value was “totally dissolved”.

Q: What about the “dissolution state of drug” value ([1]; 70% vitamin E and 30% fish oil, 9% by weight loading using ethanol) of the same compound?
A: The value was “forms crystals”.

Q: And the “maximum level” value ([1]; 70% vitamin E/30% fish oil base coat, drug loaded from NMP)?
A: The value was 11.5%.

Q: And the “maximum level” value ([1]; 70% vitamin E/30% fish oil fatty acids (FOFA) base coat, drug loaded from NMP)?
A: The value was 28%.

Q: For C=C1[C@@H](C)[C@H]2[C@H](Cc3ccccc3)NC(=O)[C@]23[C@H](OC(C)=O)/C=C/[C@@](C)(O)C(=O)[C@@H](C)C/C=C/[C@H]3[C@@H]1O [cytochalasin D], which “less area stenosis compared to the control group” value (Porcine Coronary Model) is on record?
A: Its value is 38%.

Q: What about the “less intimal hyperplasia compared to the control group” value (Porcine Coronary Model) of the same compound?
A: The value was 39%.
